The values below come from patent US11382918B2, “Methods for treating Huntington's Disease” (PTC Therapeutics, Inc., priority 2017, dated 2022).

SMILES strings stand for the structures.

The test deals with Endogenous Huntingtin Protein (HTT). As to the kind of experiment: Endogenous Huntingtin Protein Assay (ELISA-based MSD electrochemiluminescence). It counts as cell-based. The settings on record: Table 1. The method, boiled down:
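HTT protein in lysates was measured by electrochemiluminescence on the MSD platform. Rabbit monoclonal 5656S followed by SULFO-TAG anti-rabbit antibody served for detection after overnight 4 °C capture with MAB2166 or the polyglutamine-directed MW1 antibody.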
A word on the IC50: it is the concentration that gives 50% inhibition. Read a low IC50 as inhibition by little substance. With `CCN1CCN(c2cn3c(=O)cc(-c4ccc5nn(C)cc5c4)nc3cn2)CC1` [compound 590, 7-(4-ethylpiperazin-1-yl)-2-(2-methyl-2H-indazol-5-yl)-4H-pyrazino[1,2-a]pyrimidin-4-one], the IC50 was in the range of 3000 to 33000 nM.

Take `Cn1cc2cc(-c3cc(=O)n4cc(N5CCN(CCO)CC5)ncc4n3)ccc2n1` [compound 591, 7-[4-(2-hydroxyethyl)piperazin-1-yl]-2-(2-methyl-2H-indazol-5-yl)-4H-pyrazino[1,2-a]pyrimidin-4-one]: the IC50 was in the range of 3000 to 33000 nM.

On to `Cc1cn2cc(-c3cc(=O)n4cc(C5CCN(C)CC5)ncc4n3)cc(C)c2n1` [compound 592, 2-(2,8-dimethylimidazo[1,2-a]pyridin-6-yl)-7-(1-methylpiperidin-4-yl)-4H-pyrazino[1,2-a]pyrimidin-4-one], for which the IC50 fell in the range of 3000 to 33000 nM.

With `CCN1CCC(c2cn3c(=O)cc(-c4cc(C)c5nc(C)cn5c4)nc3cn2)CC1` [compound 593, 2-(2,8-dimethylimidazo[1,2-a]pyridin-6-yl)-7-(1-ethylpiperidin-4-yl)-4H-pyrazino[1,2-a]pyrimidin-4-one], the 50% inhibitory concentration (IC50) lay within 1000 to 3000 nM.

The molecule `Cc1cn2cc(-c3cc(=O)n4cc(C5CCN(CCO)CC5)ncc4n3)cc(C)c2n1` [compound 594, 2-(2,8-dimethylimidazo[1,2-a]pyridin-6-yl)-7-[1-(2-hydroxyethyl)piperidin-4-yl]-4H-pyrazino[1,2-a]pyrimidin-4-one] registered an IC50 of 1000 to 3000 nM.

`Cc1cn2cc(-c3cc(=O)n4cc(C5CCN(C(C)C)CC5)ncc4n3)cc(Cl)c2n1` [compound 595, 2-(8-chloro-2-methylimidazo[1,2-a]pyridin-6-yl)-7-[1-(propan-2-yl)piperidin-4-yl]-4H-pyrazino[1,2-a]pyrimidin-4-one] registered an IC50 of 1000 to 3000 nM.

Regarding `Cc1cn2cc(-c3cc(=O)n4cc(C5CCN(CCO)CC5)ncc4n3)cc(Cl)c2n1` [compound 599, 2-(8-chloro-2-methylimidazo[1,2-a]pyridin-6-yl)-7-[1-(2-hydroxyethyl)piperidin-4-yl]-4H-pyrazino[1,2-a]pyrimidin-4-one], the IC50 was in the range of 1000 to 3000 nM.

Turning to `Cn1cc2cc(-c3cc(=O)n4cc(C5CCNCC5)ccc4n3)ccc2n1` [compound 606, 2-(2-methyl-2H-indazol-5-yl)-7-(piperidin-4-yl)-4H-pyrido[1,2-a]pyrimidin-4-one], the IC50 is 3000 to 33000 nM.

`CC(C)N1CCC(c2ccc3nc(-c4ccc5nn(C)cc5c4)cc(=O)n3c2)CC1` [compound 608, 2-(2-methyl-2H-indazol-5-yl)-7-[1-(propan-2-yl)piperidin-4-yl]-4H-pyrido[1,2-a]pyrimidin-4-one] came in with an IC50 of 500 to 1000 nM.

As to `Cc1cn2nc(-c3cc(=O)n4cc(N5CCC(NCCO)CC5)cc(C)c4n3)cc2c(C)n1` [compound 609, 2-(4,6-dimethylpyrazolo[1,5-a]pyrazin-2-yl)-7-{4-[(2-hydroxyethyl)amino]piperidin-1-yl}-9-methyl-4H-pyrido[1,2-a]pyrimidin-4-one], the IC50 fell in the range of 3000 to 33000 nM.

`CCN1CCC(c2ccc3nc(-c4ccc5nn(C)cc5c4)cc(=O)n3c2)CC1` [compound 612, 7-(1-ethylpiperidin-4-yl)-2-(2-methyl-2H-indazol-5-yl)-4H-pyrido[1,2-a]pyrimidin-4-one] gave an IC50 of 1000 to 3000 nM.

Molecule `Cn1cc2cc(-c3cc(=O)n4cc(C5CCN(CCO)CC5)ccc4n3)ccc2n1` [compound 613, 7-[1-(2-hydroxyethyl)piperidin-4-yl]-2-(2-methyl-2H-indazol-5-yl)-4H-pyrido[1,2-a]pyrimidin-4-one] yielded an IC50 of 1000 to 3000 nM.

`Cc1cn2nc(-c3cc(=O)n4cc(N5CCC6C(CCN6CCO)C5)ccc4n3)cc2c(C)n1` (centres unmarked) [compound 624, 2-(4,6-dimethylpyrazolo[1,5-a]pyrazin-2-yl)-7-[1-(2-hydroxyethyl)octahydro-5H-pyrrolo[3,2-c]pyridin-5-yl]-4H-pyrido[1,2-a]pyrimidin-4-one]: the IC50 is 500 to 1000 nM.

`Cc1cn2cc(-c3cc(=O)n4cc(C5CCN(C(C)C)CC5)ncc4n3)ccc2n1` [compound 627, 2-(2-methylimidazo[1,2-a]pyridin-6-yl)-7-[1-(propan-2-yl)piperidin-4-yl]-4H-pyrazino[1,2-a]pyrimidin-4-one] came in with a half-maximal inhibitory concentration (IC50) of 1000 to 3000 nM.

Molecule `Cc1cn2cc(-c3cc(=O)n4cc(C5CCN(C6CCC6)CC5)ncc4n3)ccc2n1` [compound 628, 7-(1-cyclobutylpiperidin-4-yl)-2-(2-methylimidazo[1,2-a]pyridin-6-yl)-4H-pyrazino[1,2-a]pyrimidin-4-one] displayed a half-maximal inhibitory concentration (IC50) of 3000 to 33000 nM.

Consider `CCc1nc(C)cn2nc(-c3cc(=O)n4cc(N5CCN(CCO)[C@H](C)C5)ccc4n3)cc12` [compound 632, 2-(4-ethyl-6-methylpyrazolo[1,5-a]pyrazin-2-yl)-7-[(3R)-4-(2-hydroxyethyl)-3-methylpiperazin-1-yl]-4H-pyrido[1,2-a]pyrimidin-4-one], for which the concentration for half-maximal inhibition (IC50) lay in the range of 1000 to 3000 nM.

As to `CCc1nc(C)cn2nc(-c3cc(=O)n4cc(N5C[C@@H](C)N[C@@H](C)C5)ccc4n3)cc12` [compound 633, 7-[(3R,5S)-3,5-dimethylpiperazin-1-yl]-2-(4-ethyl-6-methylpyrazolo[1,5-a]pyrazin-2-yl)-4H-pyrido[1,2-a]pyrimidin-4-one], the IC50 lay in the range of 3000 to 33000 nM.

Take `CCc1nc(C)cn2nc(-c3cc(=O)n4cc(N5CCN[C@@H](C)C5)ccc4n3)cc12` [compound 635, 2-(4-ethyl-6-methylpyrazolo[1,5-a]pyrazin-2-yl)-7-[(3S)-3-methylpiperazin-1-yl]-4H-pyrido[1,2-a]pyrimidin-4-one]: the IC50 lay within 1000 to 3000 nM.

In turn, `CCc1nc(C)cn2nc(-c3cc(=O)n4cc(N5CCCN(C)CC5)ccc4n3)cc12` [compound 636, 2-(4-ethyl-6-methylpyrazolo[1,5-a]pyrazin-2-yl)-7-(4-methyl-1,4-diazepan-1-yl)-4H-pyrido[1,2-a]pyrimidin-4-one] returned an IC50 of 3000 to 33000 nM.

In turn, `CCc1cc(-c2cc(=O)n3cc(N4CCNCC4)ccc3n2)cn2cc(C)nc12` [compound 637, 2-(8-ethyl-2-methylimidazo[1,2-a]pyridin-6-yl)-7-(piperazin-1-yl)-4H-pyrido[1,2-a]pyrimidin-4-one] came in with an IC50 of 500 to 1000 nM.

The molecule `CCc1cc(-c2cc(=O)n3cc(N4CCN[C@@H](C)C4)ccc3n2)cn2cc(C)nc12` [compound 639, 2-(8-ethyl-2-methylimidazo[1,2-a]pyridin-6-yl)-7-[(3S)-3-methylpiperazin-1-yl]-4H-pyrido[1,2-a]pyrimidin-4-one] registered an IC50 of 3000 to 33000 nM.

With `Cc1cn2nc(-c3cc(=O)n4cc(C5CCN(C6CC6)CC5)ccc4n3)cc2c(C)n1` [compound 641, 7-(1-cyclopropylpiperidin-4-yl)-2-(4,6-dimethylpyrazolo[1,5-a]pyrazin-2-yl)-4H-pyrido[1,2-a]pyrimidin-4-one], the IC50 was 3000 to 33000 nM.

Molecule `CCc1cc(-c2cc(=O)n3cc(N4CCN(CCO)[C@H](C)C4)ccc3n2)cn2cc(C)nc12` [compound 649, 2-(8-ethyl-2-methylimidazo[1,2-a]pyridin-6-yl)-7-[(3R)-4-(2-hydroxyethyl)-3-methylpiperazin-1-yl]-4H-pyrido[1,2-a]pyrimidin-4-one] came in with an IC50 of 500 to 1000 nM.

With `CCc1nc(C)cn2nc(-c3cc(=O)n4cc(C5CCNCC5)ncc4n3)cc12` [compound 653, 2-(4-ethyl-6-methylpyrazolo[1,5-a]pyrazin-2-yl)-7-(piperidin-4-yl)-4H-pyrazino[1,2-a]pyrimidin-4-one], the IC50 was less than 100 nM.

The molecule `CCc1nc(C)cn2nc(-c3cc(=O)n4cc(C5CCN(C)CC5)ncc4n3)cc12` [compound 654, 2-(4-ethyl-6-methylpyrazolo[1,5-a]pyrazin-2-yl)-7-(1-methylpiperidin-4-yl)-4H-pyrazino[1,2-a]pyrimidin-4-one] returned an IC50 of less than 100 nM.

On to `CCc1nc(C)cn2nc(-c3cc(=O)n4cc(C5CCN(CC)CC5)ncc4n3)cc12` [compound 655, 2-(4-ethyl-6-methylpyrazolo[1,5-a]pyrazin-2-yl)-7-(1-ethylpiperidin-4-yl)-4H-pyrazino[1,2-a]pyrimidin-4-one], for which the half-inhibitory concentration (IC50) lay within 100 to 500 nM.

The molecule `CCc1nc(C)cn2nc(-c3cc(=O)n4cc(C5CCNCC5)ccc4n3)cc12` [compound 656, 2-(4-ethyl-6-methylpyrazolo[1,5-a]pyrazin-2-yl)-7-(piperidin-4-yl)-4H-pyrido[1,2-a]pyrimidin-4-one] displayed an IC50 of 100 to 500 nM.

With `Cc1cn2nc(-c3cc(=O)n4cc(C5CCN(CCF)CC5)ccc4n3)cc2c(C)n1` [compound 662, 2-(4,6-dimethylpyrazolo[1,5-a]pyrazin-2-yl)-7-[1-(2-fluoroethyl)piperidin-4-yl]-4H-pyrido[1,2-a]pyrimidin-4-one], the IC50 was 500 to 1000 nM.

Regarding `CCc1nc(C)cn2nc(-c3cc(=O)n4cc(N5CCN(CCCF)CC5)ccc4n3)cc12` [compound 665, 2-(4-ethyl-6-methylpyrazolo[1,5-a]pyrazin-2-yl)-7-[4-(3-fluoropropyl)piperazin-1-yl]-4H-pyrido[1,2-a]pyrimidin-4-one], the 50% inhibitory concentration (IC50) fell in the range of 3000 to 33000 nM.

`CCc1nc(C)cn2nc(-c3cc(=O)n4cc(N5CCN(CCCF)[C@H](C)C5)ccc4n3)cc12` [compound 667, 2-(4-ethyl-6-methylpyrazolo[1,5-a]pyrazin-2-yl)-7-[(3R)-4-(3-fluoropropyl)-3-methylpiperazin-1-yl]-4H-pyrido[1,2-a]pyrimidin-4-one] returned an IC50 of 1000 to 3000 nM.

`CCc1nc(C)cn2nc(-c3cc(=O)n4cc(C5CCN(CCF)CC5)ccc4n3)cc12` [compound 668, 2-(4-ethyl-6-methylpyrazolo[1,5-a]pyrazin-2-yl)-7-[1-(2-fluoroethyl)piperidin-4-yl]-4H-pyrido[1,2-a]pyrimidin-4-one] yielded a concentration for half-maximal inhibition (IC50) of 500 to 1000 nM.

`Cc1cn2nc(-c3cc(=O)n4cc(C5CCNCC5)cc(C)c4n3)cc2c(C)n1` [compound 671, 2-(4,6-dimethylpyrazolo[1,5-a]pyrazin-2-yl)-9-methyl-7-(piperidin-4-yl)-4H-pyrido[1,2-a]pyrimidin-4-one] gave a half-inhibitory concentration (IC50) of 1000 to 3000 nM.
